Measured values as given in patent US6939953B2, “Leukotriene receptor” (Schering Corporation, priority 1999, dated 2005).
Like-named read-outs stand apart in the source and are kept apart here.

Tests used:
[1] = molecular target: T1, SP9030 (human leukotriene receptor, SEQ ID NO: 2) (Homo sapiens, UniProt Q9NPC1); assay: Radioligand competition assay using ^3H-LTB4 as the label on membranes of COS-7 cells transfected with SP9030 cDNA; type: binding; conditions: for Affinity of the receptor for the ligand (in words): summary statement; for Ki: read-out: Ki (competition with ^3H-LTB4)
T1 construct: The ORF of SP9030 was cloned in the expression vector pCR3.1 (pCR3.1-SP9030); expressed in transfected cells; host or cells: COS-7 cells (membranes)
T1 sequence (Q9NPC1 1-358): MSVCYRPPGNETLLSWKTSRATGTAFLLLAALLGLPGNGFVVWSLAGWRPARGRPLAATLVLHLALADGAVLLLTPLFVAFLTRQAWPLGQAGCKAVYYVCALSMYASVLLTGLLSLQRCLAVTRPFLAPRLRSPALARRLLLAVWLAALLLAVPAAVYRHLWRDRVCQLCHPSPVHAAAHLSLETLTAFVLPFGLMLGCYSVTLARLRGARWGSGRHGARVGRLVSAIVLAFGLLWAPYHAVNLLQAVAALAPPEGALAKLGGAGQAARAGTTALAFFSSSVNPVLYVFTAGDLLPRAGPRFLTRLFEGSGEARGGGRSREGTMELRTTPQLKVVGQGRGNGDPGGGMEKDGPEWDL
Experimental: COS-7 cells, grown in DMEM/10% FCS until 80-90% confluence, were transfected with SuperFect agent (Giagene) at 20 μg DNA/150 mm plate. Forty eight hours after transfection, medium was changed to Opti-MEM or DMEM/Opti-MEM(1:1)/5% FCS. Cells were harvested 72 hours after transfection and membranes from the cells were prepared as follows. The cells were washed with 20 ml PBS without Ca^2+/Mg^2+ and incubated with 10 ml […] Hepes pH 7.4, 0.5 mM PMSF, 20 μg/ml aprotinin. The cells were scraped off the plate and vortexed. The cell suspension was then centrifuged at 13,000 g at 4° C. for 15 min. The pellets were re-suspended in 1.8 ml 50 mM Tris-Cl, pH 7.5 and vortexed. The membranes were homogenized with a 23-gauge needle. The protein concentration of the membrane preparations was determined with the BCA agents (Pierce).
Radioligand binding assays were performed to test the ability of SP9030, when expressed in cultured cells, to bind ^3H-labeled leukotriene. The ORF of SP9030 was cloned in the expression vector pCR3.1 (pCR3.1-SP9030). COS-7 cells were transfected with pCR3.1-SP9030 or pCR3.1 alone (mock transfection). Two days after transfection, the normal growth medium DMEM/10% FCS was replaced by either Opti-MEM or DMEM-Opti-MEM/5% FCS. The cells were allowed to grow one more day and then membranes were prepared for use in binding assay.
The reactions were incubated for 1 hour at 4° C. while rotated slowly. Multiscreen FB filters (Millipore) pre-soaked with 50 μl binding assay buffer for 1 hour at room temperature were used to filter the binding assays and the filters were washed twice with 100 μl 50 mM TrisCl, pH 7.5 (ice cold). Fifty microliters of scintillation fluid was added to the filters and counted to detect the bound radioligands. For radioligand competition assays, 160 μl binding assay buffer containing appropriate membranes were mixed with 20 μl of binding assay buffer containing 6% DMSO (v/v) and various concentrations of competing compounds. […] The final concentration of radioligand was 0.25 nM. Incubation conditions were the same as that used for the above described saturation assays.
COS-7 cells transfected with SP9030 cDNA were harvested three days after transfection and membrane prepared from cells used for binding assays.

[2] = molecular target: T2, SP9030 expressed in 293-EBNA cells (Homo sapiens, UniProt Q9NPC1); assay: Intracellular Ca2+ flux measurement (FLIPR) in 293-EBNA cells expressing SP9030; type: cell-based; conditions: 293-EBNA cells transfected with SP9030, Fluo-3, FLIPR
T2 construct: expressed in transfected cells; host or cells: 293-EBNA cells
T2 sequence (Q9NPC1 1-358): T1 sequence (Q9NPC1 1-358)
Experimental: (§1) 293-EBNA cells, grown in DMEM containing 10% FCS until 80-90% confluence, were transfected with SuperFect transfection agent. The next day, cells were trypsinized off culture plates and washed with PBS lacking Ca^2+/Mg^2+. The cells were then seeded at a density of 35,000 cells per 100 μl medium) into 96-well plates that were pre-coated with poly-D-lysine (Becton Dickinson). The third day following transfection, medium was removed from cells and 100 μl Hank's balanced salt solution (lacking phenol red) containing 4 μM of Fluo-3, AM (Molecular Probes), 20 mM Hepes, pH 7.4, 0.1% (w/v) BSA and […] added and subsequently incubated at 37° C., 5% CO2 for 1 hour. The cells were then washed three times with 150 μl wash buffer containing HANK's BSS, 40 mM Hepes, pH 7.4 and […]. One hundred μl of the wash buffer was added after the final wash and Ca^2+ flux was measured after addition of 40 μl of wash buffer containing appropriate concentration of ligands. The FLIPR instrument (Molecular Device) was used in the measurement of Ca^2+ flux.
(§2) Intracellular function that the SP9030 receptor may mediate through activation by its ligand was examined in measurements of intracellular Ca^2+ flux.

[3] = test system: 293-EBNA cells mock transfected without SP9030 cDNA; assay: Intracellular Ca2+ flux measurement (FLIPR) in mock transfected 293-EBNA cells; type: cell-based
Experimental: as §1, §2

SMILES	Affinity of the receptor for the ligand (in words) [1]	Cellular Ca2+ release [2]	Ca2+ response to incubation with ligand [3]	Ki ([1]; 0.25 nM ^3H-LTB4, Ki=EC50/(1+[^3H-LTB4]/Kd), Kd […]) [nM]	Ki [1] [nM]
CCCCC[C@H](O)/C=C/C=C\C/C=C\C/C=C\CCCC(=O)O [15(5)-OH-5z, 8z, 11z, 13e)-eicosatetraenoic acid]	high affinity	–	–	–	–
CCCCC/C=C\C[C@@H](O)/C=C/C=C/C=C\[C@@H](O)CCCC(=O)O [LTB4, leukotriene B4]	high affinity	activated cellular Ca^2+ release	did not respond	–	–
CC/C=C\C/C=C\C[C@@H](O)/C=C/C=C/C=C\[C@@H](O)CCCC(=O)O [LTB5, leukotriene B5]	high affinity	–	–	8.6 ± 5.3	–
CCCCC[C@H](O)/C=C/C=C\C=C\C=C\[C@@H](O)[C@@H](O)CCCC(=O)O [lipoxin A4]	high affinity	–	–	–	112 ± 40
